# Assay results: ChEMBL document CHEMBL4346752, “Discovery and evaluation of novel nitrodihydroimidazooxazoles as promising anti-tuberculosis agents” (Bioorg Med Chem Lett, 2019)
# System: Mycobacterium tuberculosis variant bovis
# Assay: Antimycobacterial activity against Mycobacterium bovis ATCC 35737 assessed as reduction in bacterial cell growth incubated for 8 days by alamar blue staining based assay
# Assay type: functional
# Conditions: ATCC 35737, 192 h
row,SMILES,MIC [µg/mL]
1,C[C@]1(CN2CCc3nc(-c4cc(F)cc(Cl)c4)ccc3C2)Cn2cc([N+](=O)[O-])nc2O1,≤ 0.0625
2,C[C@]1(CN2CCc3nc(C4CC4)ccc3C2)Cn2cc([N+](=O)[O-])nc2O1,0.5
3,C[C@]1(CN2CCc3nc(-c4ccc(Cl)c(F)c4)ccc3C2)Cn2cc([N+](=O)[O-])nc2O1,≤ 0.0625
4,C[C@]1(COc2ccc(N3CCC(Oc4ccc(OC(F)(F)F)cc4)CC3)cc2)Cn2cc([N+](=O)[O-])nc2O1,≤ 0.0625
5,C[C@]1(CN2CCn3cc(-c4ccc(F)c(F)c4)nc3C2)Cn2cc([N+](=O)[O-])nc2O1,1
6,C[C@]1(CN2CCc3nc(-c4ccccc4)ncc3C2)Cn2cc([N+](=O)[O-])nc2O1,1
7,C[C@]1(CN2CCc3nc(-c4cccc(Cl)c4F)ccc3C2)Cn2cc([N+](=O)[O-])nc2O1,≤ 0.0625
8,C[C@]1(CN2CCc3nc(-c4ccccc4)ccc3C2)Cn2cc([N+](=O)[O-])nc2O1,0.25
9,C[C@]1(CN2CCc3nc(-c4ccc(F)c(F)c4)oc3C2)Cn2cc([N+](=O)[O-])nc2O1,0.125
10,C[C@]1(CN2CCc3nc(-c4cc(Cl)ccc4F)ccc3C2)Cn2cc([N+](=O)[O-])nc2O1,≤ 0.0625
11,C[C@]1(CN2CCc3nc(-c4ccccc4F)ccc3C2)Cn2cc([N+](=O)[O-])nc2O1,0.125
12,C[C@]1(CN2CCc3nc(C(F)(F)F)ccc3C2)Cn2cc([N+](=O)[O-])nc2O1,2
13,C[C@]1(CN2CCc3nc(N4CCOCC4)ccc3C2)Cn2cc([N+](=O)[O-])nc2O1,0.5
14,C[C@]1(CN2CCc3nc(-c4ccc(F)cc4)nnc3C2)Cn2cc([N+](=O)[O-])nc2O1,0.5
15,C[C@]1(CN2CCc3nc(-c4cccc(F)c4F)ccc3C2)Cn2cc([N+](=O)[O-])nc2O1,≤ 0.0625
16,C[C@]1(CN2CCc3nc(-c4ccc(OC(F)(F)F)cc4)ccc3C2)Cn2cc([N+](=O)[O-])nc2O1,8
17,C[C@]1(CN2CCc3nc(-c4ccc(F)c(Cl)c4)ccc3C2)Cn2cc([N+](=O)[O-])nc2O1,≤ 0.0625
18,C[C@]1(CN2CCn3cc(-c4ccc(F)cc4)nc3C2)Cn2cc([N+](=O)[O-])nc2O1,1
19,C[C@]1(CN2CCc3nc(-c4ccc(F)cc4)oc3C2)Cn2cc([N+](=O)[O-])nc2O1,0.25
20,C[C@]1(CN2CCn3nc(-c4ccc(F)c(F)c4)nc3C2)Cn2cc([N+](=O)[O-])nc2O1,1
21,C[C@]1(CN2CCc3nc(-c4cc(F)ccc4Cl)ccc3C2)Cn2cc([N+](=O)[O-])nc2O1,≤ 0.0625

row,SMILES,MIC [µg/mL]
1,C[C@]1(CN2CCc3nc(-c4ccc(Cl)cc4)ccc3C2)Cn2cc([N+](=O)[O-])nc2O1,2
2,C[C@]1(CN2CCc3nc(C4CCCCC4)ccc3C2)Cn2cc([N+](=O)[O-])nc2O1,0.25
3,C[C@]1(CN2CCc3nc(-c4ccc(F)cc4)sc3C2)Cn2cc([N+](=O)[O-])nc2O1,0.125
4,C[C@]1(CN2CCc3nc(-c4cc(F)c(F)c(F)c4)ccc3C2)Cn2cc([N+](=O)[O-])nc2O1,≤ 0.0625
5,C[C@]1(CN2CCc3nc(C4CCOCC4)ccc3C2)Cn2cc([N+](=O)[O-])nc2O1,2
6,C[C@]1(CN2CCc3oc(-c4ccc(F)cc4)nc3C2)Cn2cc([N+](=O)[O-])nc2O1,0.5
7,C[C@]1(CN2CCc3nc(N4CCC(F)(F)CC4)ccc3C2)Cn2cc([N+](=O)[O-])nc2O1,0.5
8,C[C@]1(CN2CCc3oc(-c4ccc(F)c(F)c4)nc3C2)Cn2cc([N+](=O)[O-])nc2O1,0.25
9,C[C@]1(CN2CCc3nc(N4CCCCC4)ccc3C2)Cn2cc([N+](=O)[O-])nc2O1,0.5
10,C[C@]1(CN2CCc3nc(-c4cc(F)cc(F)c4)ccc3C2)Cn2cc([N+](=O)[O-])nc2O1,≤ 0.0625
11,C[C@]1(CN2CCc3nc(-c4ccc(F)cc4)ccc3C2)Cn2cc([N+](=O)[O-])nc2O1,≤ 0.0625
12,C[C@]1(CN2CCc3oc(-c4ccc(F)cc4)cc3C2)Cn2cc([N+](=O)[O-])nc2O1,1
13,C[C@]1(CN2CCc3sc(-c4ccc(F)cc4)nc3C2)Cn2cc([N+](=O)[O-])nc2O1,0.25
14,C[C@]1(CN2CCc3nc(-c4ccc(C(F)(F)F)cc4)ccc3C2)Cn2cc([N+](=O)[O-])nc2O1,≤ 0.0625
15,C[C@]1(CN2CCc3nc(-c4ccc(F)c(F)c4)ccc3C2)Cn2cc([N+](=O)[O-])nc2O1,≤ 0.0625
16,C[C@]1(CN2CCc3nc(-c4ccc(Cl)cc4F)ccc3C2)Cn2cc([N+](=O)[O-])nc2O1,≤ 0.0625
17,C[C@]1(CN2CCc3nc(-c4ccc(F)cc4F)ccc3C2)Cn2cc([N+](=O)[O-])nc2O1,≤ 0.0625
18,C[C@]1(CN2CCc3nc(-c4cc(F)ccc4F)ccc3C2)Cn2cc([N+](=O)[O-])nc2O1,≤ 0.0625
19,C[C@]1(CN2CCc3nc(-c4cccc(F)c4)ccc3C2)Cn2cc([N+](=O)[O-])nc2O1,≤ 0.0625
20,C[C@]1(CN2CCc3nc(-c4ccc(C#N)cc4)ccc3C2)Cn2cc([N+](=O)[O-])nc2O1,2
